Entries after “also recorded” stand apart in the source; their conditions may differ.
How the values were obtained:
[1] = Indicator fluorescence response titration, dissociation constant for Na+; type: binding
Protocol: (§1) The fluorescence response of a selected compound of the invention as a function of ion concentration was determined by dissolving a sample of the pure compound in 3 mL of each of two solutions: solution 1 (“high”) consists of 200 mM NaCl (or other appropriate ion) and 10 mM MOPS buffer at pH 7.05; solution 2 (“zero”) consists of 10 mM MOPS buffer at pH 7.05 in deionized water. […]. A least-squares fit was used to arrive at the concentration where the selected indicator was maximally sensitive to changes in Na^+ concentration. This corresponded to the dissociation constant of that indicator for Na^+ and was expressed as a concentration.
(§2) This methodology was repeated for K+, Li+ and Tb+ to obtain emission spectra and to calculate the Kd values. See, Table 2 and FIG. 4
For visible wavelength probes such as Compound 22 (Example 17), Compound 27 (Example 22) and Compound 86 (Example 79) the indicator's fluorescence emission was typically scanned from 450–650 nm while the sample was excited at the absorption maximum wavelength. For UV-excitable ratiometric probes such as Compound 51 (Example 46), the excitation wavelengths of the dye in solution 2 were scanned from 260 to 450 nm while monitoring constant fluorescence emission at 510 nm (as in FIG. 1). […]

[2] = Indicator fluorescence response titration, dissociation constant for K+; type: binding
Protocol: The fluorescence response of a selected compound of the invention as a function of ion concentration was determined by dissolving a sample of the pure compound in 3 mL of each of two solutions: solution 1 (“high”) consists of 200 mM NaCl (or other appropriate ion) and 10 mM MOPS buffer at pH 7.05; solution 2 (“zero”) consists of 10 mM MOPS buffer at pH 7.05 in deionized water. A series of curves are generated by cross dilution between the two solutions to arrive at intermediate concentrations of Na+, K+, Li+ and Tb+. The emission of a selected indicator in solution 2 was scanned and then was repeated to cover the entire range from zero to 200 mM Na^+. For example, the fluorescence emission of the chosen indicator was scanned while the sample was excited at that indicator's absorption maximum wavelength, and then 1/100 of the sample was removed and replaced with 1/100 of solution 1 to arrive at a Na^+ concentration of 2 mM. This dilution was repeated to cover the entire range from zero to […] Na^+ and the resulting emission intensities were plotted versus the ion concentrations. A least-squares fit was used to arrive at the concentration where the selected indicator was maximally sensitive to changes in Na^+ concentration. This corresponded to the dissociation constant of that indicator for Na^+ and was expressed as a concentration.
as §2
(§3) For visible wavelength probes such as Compound 22 (Example 17), Compound 27 (Example 22) and Compound 86 (Example 79) the indicator's fluorescence emission was typically scanned from 450–650 nm while the sample was excited at the absorption maximum wavelength. For UV-excitable ratiometric probes such as Compound 51 (Example 46), the excitation wavelengths of the dye in solution 2 were scanned from 260 to 450 nm while monitoring constant fluorescence emission at 510 nm (as in FIG. 1).

[3] = Indicator fluorescence response titration, dissociation constant for Zn2+; type: binding; conditions: Table 1, Formula (I) compounds; approximate values; read-out: Dissociation Constant (target ion) Kd (Zn^2+)
Protocol: as §1

[4] = Indicator fluorescence response titration, dissociation constant for Ca2+; type: binding; conditions: Table 1, Formula (I) compounds, read-out: Dissociation Constant (target ion) Kd (Ca^2+)
Protocol: as §1

Jurkat cells = assay: Calibration of sodium indicator fluorescence response in cells (flow cytometry); type: cell-based; conditions: 2 μM gramicidin, extracellular Na+ 0-145 mM, excitation 488 nm; for Intracellular fluorescence response to increasing intracellular Na^+ concentration: Jurkat cells, 5 μM Compound 25 or 10 μM Compound 87
Protocol: Jurkat cells were loaded with a 5 μM solution of either Compound 25 (Example 20), or commercially available SODIUM GREEN tetraacetate indicator (Molecular Probes, Inc., Eugene, Oreg.) and 10 μM for Compound 87 (Example 80) for 30 minutes at 37° C. The use of PLURONIC dispersing agent helped dissolve the selected indicator. Intracellular sodium concentrations were then established by varying the sodium concentration of the extracellular buffer in the presence of 2 μM gramicidin (a sodium-pore forming antibiotic). The extracellular buffer was set at 0 mM, 10 mM, 20 mM, 50 mM, 100 mM, and 145 mM, respectively. Intracellular fluorescence response of the selected indicators was measured using a FACSCAN flow cytometer and associated software, with fluorescence excitation at 488 nm.

[5] = Indicator fluorescence response titration, dissociation constant for Li+; type: binding; conditions: Table 2, Formula (II) compounds, in solution
Protocol: as §1, §2, §3

[6] = Indicator fluorescence response titration, dissociation constant for Rb+; type: binding; conditions: Table 2, Formula (II) compounds, in solution
Protocol: as §1, §2, §3

[7] = Table 1, Formula (I) compounds, approximate values, read-out: Dissociation Constant (target ion) Kd (Na^+)
[8] = Table 2, Formula (II) compounds, in solution
[9] = Table 2, Formula (II) compounds, in solution, 10 mM MOPS pH 7.05, read-out: Dissociation constant Kd (Na^+)

Work on `COC(=O)CN1CCOCCN(CC(=O)OC)c2cc3oc(-c4ncc(C(=O)O)o4)cc3cc2OCCOc2cc(C)ccc21` yielded a Kd [1, 7] of roughly 52 mM.
`COC(=O)CN1CCOCCN(CC(=O)OC)c2ccc(-c3cc4ccc(C(=O)OC)cc4[nH]3)cc2OCCOc2cc(C)ccc21` showed a Kd [1, 7] of roughly 30 mM and a Kd ([2]; Table 1, Formula (I) compounds, approximate value printed in nM, read-out: Dissociation Constant (target ion) Kd (K^+)) of roughly 115 nM.
`COC(=O)CN1CCOCCN(CC(=O)OC)c2cc(OCC(=O)O)c(-c3cc4ccc(C(=O)OC)cc4[nH]3)cc2OCCOc2cc(C)ccc21` showed a Kd [1, 7] of roughly 52 mM.
Compound `COC(=O)CN1CCOCCN(CC(=O)OC)c2ccc(-c3c4cc(F)c(=O)cc-4oc4cc(O)c(F)cc34)cc2OCCOc2cc(C)ccc21` has a Kd [1, 7] of roughly 60 mM.
Work on `COC(=O)CN1CCOCCN(CC(=O)OC)c2ccc(-c3c4ccc(=[N+](C)C)cc-4oc4cc(N(C)C)ccc34)cc2OCCOc2cc(C)ccc21` yielded a Kd [1, 7] of roughly 95 mM.
`COC(=O)CN1CCOCCN(CC(=O)OC)c2cc(OCC(=O)[O-])c(-c3c4ccc(=[N+](C)C)cc-4oc4cc(N(C)C)ccc34)cc2OCCOc2cc(C)ccc21` showed a Kd [1, 7] of roughly 92 mM.
`Cc1ccc2c(c1)OCCOc1cc(-c3c4ccc(=[N+](C)C)cc-4oc4cc(N(C)C)ccc34)c(OCC(=O)O)cc1N(CC(=O)O)CCOCCN2CC(=O)O` showed a Kd [1, 7] of roughly 70 mM and a Kd [3] of roughly 0.0001 mM.
`COC(=O)CN1CCOCCN(CC(=O)OC)c2cc(OCC(=O)NC(CC(=O)O)C(=O)[O-])c(-c3c4ccc(=[N+](C)C)cc-4oc4cc(N(C)C)ccc34)cc2OCCOc2cc(C)ccc21` (centres unmarked) gave a Kd [1, 7] of roughly 85 mM.
For `CCCCCCCCCCCCCCCCCCNC(=O)COc1cc2c(cc1-c1c3ccc(=[N+](C)C)cc-3oc3cc(N(C)C)ccc13)OCCOc1cc(C)ccc1N(CC(=O)OC)CCOCCN2CC(=O)OC`, the Kd [1, 7] was roughly 14 mM.
With `Cc1ccc2c(c1)OCCOc1cc(-c3c4ccc(=[N+](C)C)cc-4oc4cc(N(C)C)ccc34)ccc1N(CC(=O)O)CCOCCN2CC(=O)[O-]` the Kd [1, 7] was roughly 38 mM, the Kd [3] was roughly 0.0003 mM and the Kd ([4]; approximate values) was roughly 0.004 mM.
Work on `Cc1ccc2c(c1)OCCOc1cc(C3=c4cc5c6c(c4Oc4c3cc3c7c4CCCN7CCC3)CCC[N+]=6CCC5)ccc1N(CC(=O)O)CCOCCN2CC(=O)[O-]` yielded a Kd [3] of roughly 0.008 mM and a Kd ([4]; approximate values) of roughly 0.007 mM.
`Cc1ccc2c(c1)OCCOc1cc(-c3c4cc(F)c(=O)cc-4oc4cc(O)c(F)cc34)ccc1N(CC(=O)O)CCOCCN2CC(=O)O` showed a Kd [1, 7] of roughly 36 mM, a Kd [3] of roughly 0.0003 mM and a Kd ([4]; approximate values) of roughly 0.005 mM.
Work on `Cc1ccc2c(c1)OCCOc1cc(-c3c4cc(F)c(=O)cc-4oc4cc(O)c(F)cc34)ccc1N(CC(N)=O)CCOCCN2CC(N)=O` yielded a Kd [3] of roughly 0.6 mM.
`Cc1ccc2c(c1)OCCOc1cc(-c3c4ccc(=[N+](C)C)cc-4oc4cc(N(C)C)ccc34)ccc1N(CC(N)=O)CCOCCN2CC(N)=O` showed a Kd [3] of roughly 0.65 mM.
In the case of `Cc1ccc2c(c1)OCCOc1cc3cc(-c4ncc(C(=O)O)o4)oc3cc1N(CC(=O)O)CCOCCN2CC(=O)O`, the Kd ([4]; approximate value) is reported as roughly 0.0004 mM.
For `COC(=O)OCOC(=O)CN1CCOCCN(CC(=O)OCOC(C)=O)c2ccc(C)cc2OCCOc2cc(C3=C4C=C(F)C(O)C=C4Oc4cc(OCOC(C)=O)c(F)cc43)ccc21` (centres unmarked) [Compound 25], the “Intracellular fluorescence intensity compared with SODIUM GREEN indicator” value (Jurkat cells; Jurkat cells loaded with 5 μM for 30 minutes at 37° C., FIG. 3) was “stronger fluorescence intensity than SODIUM GREEN sodium indicator; also recorded: substantially brighter intracellular fluorescence intensity than the SODIUM GREEN indicator” and the “Intracellular fluorescence response to increasing intracellular Na^+ concentration” value (Jurkat cells) was “consistent increase in fluorescence intensity”.
For `COC(=O)CN1CCOCCOCCOCCOc2cc(-c3c4cc(F)c(=O)cc-4oc4cc(O)c(F)cc34)ccc21` [Compound 86], the “Response to complexation (R = F/F0), R (Na^+)” value (“Response … (Na^+)” for short) [1, 8] was 28.5, the Kd [1, 9] was 82 mM and the “Response to complexation (R = F/F0), R (K^+)” value [2, 8] was 6.9. For the same compound, the “Response to complexation (R = F/F0), R (Li^+)” value [5] was 6.8 and the “Response to complexation (R = F/F0), R (Rb^+)” value [6] was 2.7.
With `COC(=O)CN1CCOCCOCCOCCOc2cc(-c3c4cc(F)c(=O)cc-4oc4cc(OCOC(C)=O)c(F)cc34)ccc21` [Compound 87] the “Intracellular fluorescence response to increasing intracellular Na^+ concentration” value (Jurkat cells) was “increased fluorescent signal with increasing concentrations of sodium ions”.
In the case of `COC(=O)CN1CCOCCOCCOCCOc2cc(-c3cc4ccc(C(=O)OC)cc4[nH]3)ccc21` [Compound 93], the “Response … (Na^+)” value [1, 8] is reported as 25, the Kd [1, 9] is reported as 89 mM and the “Dissociation constant Kd (K^+)” value ([2]; Table 2, Formula (II) compounds, in solution, 10 mM MOPS pH 7.05) is reported as “Kd (K^+) = no sensitivity”.
For `COCCN1CCOCCOCCOCCOc2cc(-c3c4cc(F)c(=O)cc-4oc4cc(O)c(F)cc34)ccc21` [Compound 115], the “Response … (Na^+)” value [1, 8] was 5.9, the Kd [1, 9] was 78.8 mM and the “Response to complexation (R = F/F0), R (K^+)” value [2, 8] was 2.8.
In the case of `COCCN1CCOCCOCCOCCOc2cc(-c3cc4ccc(C(=O)OC)cc4[nH]3)ccc21` [Compound 120], the “Response … (Na^+)” value [1, 8] is reported as 2 and the Kd [1, 9] is reported as 89 mM.
For `COC(=O)c1ccc2cc(-c3ccc4c(c3)OCCOCCOCCOCCN4CCN(C)C)[nH]c2c1` [Compound 126], the “Response … (Na^+)” value [1, 8] was −1.2.
In the case of `O=C([O-])CN1CCOCCOCCOCCOc2cc(-c3c4cc(F)c(=O)cc-4oc4cc(O)c(F)cc34)ccc21.[K+]` [Compound 127], the “Response … (Na^+)” value [1, 8] is reported as 3.6 and the Kd [1, 9] is reported as 20 mM.
